Source: patent US7045116B2, “Treatment of osteomyelitis with radiopharmaceuticals” (priority 2001, dated 2006)

Test system: not listed separately
Assay: Biodistribution of radiopharmaceuticals in rats with tourniquet on left hind leg
Type: in vivo, Sprague-Dawley rats
Settings: Femur; tourniquet 20 minute
Excerpt: Rat biodistribution studies were done on Male Sprague-Dawley rats weighing 180–200 g that had been acclimated for approximately one week prior to this study. Four test complexes were used, Ho-DOTMP (Example 3), Ho-EDTMP (Example 4), Sm-DOTMP (Example 5) and Sm-EDTMP (Example 6). The rats were placed in a restraining cage that afforded accessibility to the left hind leg and tail. Prior to injection a tie wrap tourniquet was placed on the left hind femur above the knee to restrict blood flow. The amount of pressure induced by the tourniquet was standardized by using a tie wrap gun and was sufficient to stop arterial flow. Three rats per complex each received a 100.0 μL intravenous injection in a lateral tail vein. The tourniquets were allowed to remain in place for 5, 10 or 20 minutes post injection and were then removed. The rats were then watched for two hours, the usual biodistribution period used to allow excretion of all radioactive complexes not bound to tissue. The rats were then sacrificed for removal of tibias. The number of radioactive counts were then determined and compared to the average of number of counts of three 100.0 μL standards of the same material that was injected. Several additional tissues (femur, injection site, liver, kidney, spleen, muscle, and blood) were collected and counted for rats that had the 20 minutes restricted blood flow to check for expected renal excretion of radioactive complexes.
This reflects the concentration of the radioactive complex in the bone. Table 1 combines the data on the radioactivity found in the tibias of the rats from Examples 3 to 6 for each of the three times of tourniquet placement. Table 2 combines the data on the radioactivity found in the femurs of the rats from Examples 3 to 6 for the tourniquets applied for 20 minutes. The degree of “protection” of the bone by the tourniquet can be seen by comparison of the radioactivity in the bones on the left side (“protected” by the tourniquet for the time specified) as compared to the corresponding bones on the right side (fully exposed to the systemic, intravenous dose).

Row | Structure (SMILES) | Dose per Gram in Left Leg as a Percentage of Dose per Gram in Right Leg [%]
1 | O=P(O)(O)CN1CCN(CP(=O)(O)O)CCN(CP(=O)(O)O)CCN(CP(=O)(O)O)CC1.[Ho+3] [Ho-DOTMP] | 24
2 | O=P(O)(O)CN(CCN(CP(=O)(O)O)CP(=O)(O)O)CP(=O)(O)O.[Sm+3] [Sm-EDTMP] | 38
3 | O=P(O)(O)CN1CCN(CP(=O)(O)O)CCN(CP(=O)(O)O)CCN(CP(=O)(O)O)CC1.[Sm+3] [Sm-DOTMP] | 22
4 | O=P(O)(O)CN(CCN(CP(=O)(O)O)CP(=O)(O)O)CP(=O)(O)O.[Ho+3] [Ho-EDTMP] | 54

Same assay, conditions: Left Femur (partially protected by tourniquet); tourniquet 20 minute; i.v. tail vein

Row | Structure (SMILES) | Femoral Percentage Dose per Gram [Percentage Dose per Gram]
5 | O=P(O)(O)CN1CCN(CP(=O)(O)O)CCN(CP(=O)(O)O)CCN(CP(=O)(O)O)CC1.[Ho+3] [Ho-DOTMP] | 1.33
6 | O=P(O)(O)CN(CCN(CP(=O)(O)O)CP(=O)(O)O)CP(=O)(O)O.[Sm+3] [Sm-EDTMP] | 2.05
7 | O=P(O)(O)CN1CCN(CP(=O)(O)O)CCN(CP(=O)(O)O)CCN(CP(=O)(O)O)CC1.[Sm+3] [Sm-DOTMP] | 1.40
8 | O=P(O)(O)CN(CCN(CP(=O)(O)O)CP(=O)(O)O)CP(=O)(O)O.[Ho+3] [Ho-EDTMP] | 2.33

Same assay, conditions: Left Tibia (protected by tourniquet); tourniquet 5 minute; i.v. tail vein; sacrifice after two hours

Row | Structure (SMILES) | Tibial Percentage Dose per Gram [Percentage Dose per Gram]
9 | O=P(O)(O)CN1CCN(CP(=O)(O)O)CCN(CP(=O)(O)O)CCN(CP(=O)(O)O)CC1.[Ho+3] [Ho-DOTMP] | 3.19
10 | O=P(O)(O)CN(CCN(CP(=O)(O)O)CP(=O)(O)O)CP(=O)(O)O.[Sm+3] [Sm-EDTMP] | 5.33
11 | O=P(O)(O)CN1CCN(CP(=O)(O)O)CCN(CP(=O)(O)O)CCN(CP(=O)(O)O)CC1.[Sm+3] [Sm-DOTMP] | 4.82
12 | O=P(O)(O)CN(CCN(CP(=O)(O)O)CP(=O)(O)O)CP(=O)(O)O.[Ho+3] [Ho-EDTMP] | 1.35

Same assay, conditions: Left Tibia (protected by tourniquet); tourniquet 10 minute; i.v. tail vein; sacrifice after two hours

Row | Structure (SMILES) | Tibial Percentage Dose per Gram [Percentage Dose per Gram]
13 | O=P(O)(O)CN1CCN(CP(=O)(O)O)CCN(CP(=O)(O)O)CCN(CP(=O)(O)O)CC1.[Ho+3] [Ho-DOTMP] | 3.41
14 | O=P(O)(O)CN(CCN(CP(=O)(O)O)CP(=O)(O)O)CP(=O)(O)O.[Sm+3] [Sm-EDTMP] | 2.56
15 | O=P(O)(O)CN1CCN(CP(=O)(O)O)CCN(CP(=O)(O)O)CCN(CP(=O)(O)O)CC1.[Sm+3] [Sm-DOTMP] | 3.38
16 | O=P(O)(O)CN(CCN(CP(=O)(O)O)CP(=O)(O)O)CP(=O)(O)O.[Ho+3] [Ho-EDTMP] | 3.49

Same assay, conditions: Left Tibia (protected by tourniquet); tourniquet 20 minute; i.v. tail vein; sacrifice after two hours

Row | Structure (SMILES) | Tibial Percentage Dose per Gram [Percentage Dose per Gram]
17 | O=P(O)(O)CN1CCN(CP(=O)(O)O)CCN(CP(=O)(O)O)CCN(CP(=O)(O)O)CC1.[Ho+3] [Ho-DOTMP] | 1.35
18 | O=P(O)(O)CN(CCN(CP(=O)(O)O)CP(=O)(O)O)CP(=O)(O)O.[Sm+3] [Sm-EDTMP] | 2.04
19 | O=P(O)(O)CN1CCN(CP(=O)(O)O)CCN(CP(=O)(O)O)CCN(CP(=O)(O)O)CC1.[Sm+3] [Sm-DOTMP] | 2.06
20 | O=P(O)(O)CN(CCN(CP(=O)(O)O)CP(=O)(O)O)CP(=O)(O)O.[Ho+3] [Ho-EDTMP] | 1.25

Same assay, conditions: Right Femur (unprotected); tourniquet 20 minute; i.v. tail vein

Row | Structure (SMILES) | Femoral Percentage Dose per Gram [Percentage Dose per Gram]
21 | O=P(O)(O)CN1CCN(CP(=O)(O)O)CCN(CP(=O)(O)O)CCN(CP(=O)(O)O)CC1.[Ho+3] [Ho-DOTMP] | 5.59
22 | O=P(O)(O)CN(CCN(CP(=O)(O)O)CP(=O)(O)O)CP(=O)(O)O.[Sm+3] [Sm-EDTMP] | 5.44
23 | O=P(O)(O)CN1CCN(CP(=O)(O)O)CCN(CP(=O)(O)O)CCN(CP(=O)(O)O)CC1.[Sm+3] [Sm-DOTMP] | 6.46
24 | O=P(O)(O)CN(CCN(CP(=O)(O)O)CP(=O)(O)O)CP(=O)(O)O.[Ho+3] [Ho-EDTMP] | 4.31

Same assay, conditions: Right Tibia (unprotected); tourniquet 5 minute; i.v. tail vein; sacrifice after two hours

Row | Structure (SMILES) | Tibial Percentage Dose per Gram [Percentage Dose per Gram]
25 | O=P(O)(O)CN1CCN(CP(=O)(O)O)CCN(CP(=O)(O)O)CCN(CP(=O)(O)O)CC1.[Ho+3] [Ho-DOTMP] | 7.06
26 | O=P(O)(O)CN(CCN(CP(=O)(O)O)CP(=O)(O)O)CP(=O)(O)O.[Sm+3] [Sm-EDTMP] | 6.73
27 | O=P(O)(O)CN1CCN(CP(=O)(O)O)CCN(CP(=O)(O)O)CCN(CP(=O)(O)O)CC1.[Sm+3] [Sm-DOTMP] | 7.91
28 | O=P(O)(O)CN(CCN(CP(=O)(O)O)CP(=O)(O)O)CP(=O)(O)O.[Ho+3] [Ho-EDTMP] | 1.60

Same assay, conditions: Right Tibia (unprotected); tourniquet 10 minute; i.v. tail vein; sacrifice after two hours

Row | Structure (SMILES) | Tibial Percentage Dose per Gram [Percentage Dose per Gram]
29 | O=P(O)(O)CN1CCN(CP(=O)(O)O)CCN(CP(=O)(O)O)CCN(CP(=O)(O)O)CC1.[Ho+3] [Ho-DOTMP] | 7.52
30 | O=P(O)(O)CN(CCN(CP(=O)(O)O)CP(=O)(O)O)CP(=O)(O)O.[Sm+3] [Sm-EDTMP] | 6.17
31 | O=P(O)(O)CN1CCN(CP(=O)(O)O)CCN(CP(=O)(O)O)CCN(CP(=O)(O)O)CC1.[Sm+3] [Sm-DOTMP] | 6.79
32 | O=P(O)(O)CN(CCN(CP(=O)(O)O)CP(=O)(O)O)CP(=O)(O)O.[Ho+3] [Ho-EDTMP] | 6.95

Same assay, conditions: Right Tibia (unprotected); tourniquet 20 minute; i.v. tail vein; sacrifice after two hours

Row | Structure (SMILES) | Tibial Percentage Dose per Gram [Percentage Dose per Gram]
33 | O=P(O)(O)CN1CCN(CP(=O)(O)O)CCN(CP(=O)(O)O)CCN(CP(=O)(O)O)CC1.[Ho+3] [Ho-DOTMP] | 6.39
34 | O=P(O)(O)CN(CCN(CP(=O)(O)O)CP(=O)(O)O)CP(=O)(O)O.[Sm+3] [Sm-EDTMP] | 5.73
35 | O=P(O)(O)CN1CCN(CP(=O)(O)O)CCN(CP(=O)(O)O)CCN(CP(=O)(O)O)CC1.[Sm+3] [Sm-DOTMP] | 8.34
36 | O=P(O)(O)CN(CCN(CP(=O)(O)O)CP(=O)(O)O)CP(=O)(O)O.[Ho+3] [Ho-EDTMP] | 5.33

Same assay, conditions: Tibia; tourniquet 5 minute

Row | Structure (SMILES) | Dose per Gram in Left Leg as a Percentage of Dose per Gram in Right Leg [%]
37 | O=P(O)(O)CN1CCN(CP(=O)(O)O)CCN(CP(=O)(O)O)CCN(CP(=O)(O)O)CC1.[Ho+3] [Ho-DOTMP] | 45
38 | O=P(O)(O)CN(CCN(CP(=O)(O)O)CP(=O)(O)O)CP(=O)(O)O.[Sm+3] [Sm-EDTMP] | 79
39 | O=P(O)(O)CN1CCN(CP(=O)(O)O)CCN(CP(=O)(O)O)CCN(CP(=O)(O)O)CC1.[Sm+3] [Sm-DOTMP] | 61
40 | O=P(O)(O)CN(CCN(CP(=O)(O)O)CP(=O)(O)O)CP(=O)(O)O.[Ho+3] [Ho-EDTMP] | 84

Same assay, conditions: Tibia; tourniquet 10 minute

Row | Structure (SMILES) | Dose per Gram in Left Leg as a Percentage of Dose per Gram in Right Leg [%]
41 | O=P(O)(O)CN1CCN(CP(=O)(O)O)CCN(CP(=O)(O)O)CCN(CP(=O)(O)O)CC1.[Ho+3] [Ho-DOTMP] | 45
42 | O=P(O)(O)CN(CCN(CP(=O)(O)O)CP(=O)(O)O)CP(=O)(O)O.[Sm+3] [Sm-EDTMP] | 41
43 | O=P(O)(O)CN1CCN(CP(=O)(O)O)CCN(CP(=O)(O)O)CCN(CP(=O)(O)O)CC1.[Sm+3] [Sm-DOTMP] | 50
44 | O=P(O)(O)CN(CCN(CP(=O)(O)O)CP(=O)(O)O)CP(=O)(O)O.[Ho+3] [Ho-EDTMP] | 50

Same assay, conditions: Tibia; tourniquet 20 minute

Row | Structure (SMILES) | Dose per Gram in Left Leg as a Percentage of Dose per Gram in Right Leg [%]
45 | O=P(O)(O)CN1CCN(CP(=O)(O)O)CCN(CP(=O)(O)O)CCN(CP(=O)(O)O)CC1.[Ho+3] [Ho-DOTMP] | 21
46 | O=P(O)(O)CN(CCN(CP(=O)(O)O)CP(=O)(O)O)CP(=O)(O)O.[Sm+3] [Sm-EDTMP] | 36
47 | O=P(O)(O)CN1CCN(CP(=O)(O)O)CCN(CP(=O)(O)O)CCN(CP(=O)(O)O)CC1.[Sm+3] [Sm-DOTMP] | 25
48 | O=P(O)(O)CN(CCN(CP(=O)(O)O)CP(=O)(O)O)CP(=O)(O)O.[Ho+3] [Ho-EDTMP] | 23

Test system: Staphylococcus aureus
Assay: Treatment of osteomyelitis in rats with 166Ho-DOTMP (serial radiographs of the leg)
Type: in vivo, Sprague Dawley rats
Settings: rats with S. aureus osteomyelitis of left leg; intramuscular injection of 30 Gray (9 milliCurie); tourniquet above knee released after 10 minutes; in two weeks
Protocol: This example describes the successful treatment of osteomyelitis in rats using ^166Ho-DOTMP. Four 150 g male Sprague Dawley rats were anesthetized and prepared for surgery by shaving the left leg. The skin over the left tibia and fibula was opened, a hole was drilled into the bone marrow, and an 18-gauge needle was inserted into the bone marrow. Through the needle, a piece of 0 surgical suture and approximately 0.1 ml of Staphylococcus aureus culture in Trypticase soy broth were introduced into the bone marrow. The needle was removed and the bone defect sealed with cyanoacrylate glue. The skin was closed with 0 surgical suture. The rats were followed with serial radiographs of the left leg. Lytic lesions diagnostic of osteomyelitis developed in the fibula over the next three weeks. The entire bone appeared radiolucent. Two rats were followed without treatment. One week later, both of the rats died. […] Culture of the fluid grew Gram positive cocci consistent with the original Staphylococcus aureus infection. Two rats were treated with ^166Ho-DOTMP. A tourniquet was placed on the left leg above the knee. An intramuscular injection of 30 Gray (9 milliCurie) of ^166Ho-DOTMP was given after application of the tourniquet. The tourniquet was released after 10 minutes. The rats were followed with continued serial radiographs of the leg.

Row | Structure (SMILES) | Radiographic appearance of tibia and fibula
49 | O=P([O-])(O)CN1CCN(CP(=O)(O)O)CCN(CP(=O)([O-])O)CCN(CP(=O)(O)O)CC1.[166Ho] [^166Ho-DOTMP] | return to normal appearance of the tibia and fibula
